The values that follow come from patent US20210181109A1 (FUJIFILM Corporation, priority 2018, published 2021).

Series [1] is described as follows: NAC depletion percent, HPLC-fluorescence detection. The following applies: single substance, test substance solution 1 mmol/L, fluorescence method. In short, it runs like this: (§1)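 NAC at 5 μmol/L in pH 8.0 phosphate buffer reacted with test substance (1 mmol/L stock in water, acetonitrile, acetone or 5% DMSO/acetonitrile) 24 h at 25 °C in the dark, n=3. Stopped with TFA (0.5% final); unreacted NAC quantified by HPLC, depletion percent calculated against blank without test substance.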

Series [2] can be described thus: NAL depletion percent, HPLC-fluorescence detection. The conditions noted are these: single substance, test substance solution 1 mmol/L, fluorescence method. A digest of the protocol:
(§2)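 NAL (5 μmol/L, pH 10.2 phosphate buffer) reacted with test substance (1 mmol/L stock in water, acetonitrile, acetone or 5% DMSO/acetonitrile) for 24 h at 25 °C in the dark; stopped with TFA to 0.5%. Unreacted NAL quantified by HPLC (UV or fluorescence), n=3; depletion % relative to substance-free blank.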

Series [3] is described as follows: Average score of NAC and NAL depletion and prediction of skin allergenicity, fluorescence method. The following applies: for Average score: test substance solution 1 mmol/L. In short, it runs like this:
(§3)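 Score is the mean of NAC and NAL depletion percentages, rounded at the second decimal place. Test substances classed as allergenic (S) or non-allergenic (NS) from depletion of NAC, NAL, or their average score.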

Series [4] is described as follows: NAC depletion percent, HPLC-UV detection (281 nm). The following applies: single substance, test substance solution 1 mmol/L, Reference (UV method). A digest of the protocol: as §1
Series [5] can be described thus: NAL depletion percent, HPLC-UV detection (281 nm). The conditions noted are these: single substance, test substance solution 1 mmol/L, Reference (UV method). A digest of the protocol:
as §2

The nature of series [6]: Average score of NAC and NAL depletion and prediction of skin allergenicity, UV method. The conditions noted are these: single substance, Reference (UV method); for Prediction result: criterion average score […]; for Average score: test substance solution 1 mmol/L. A digest of the protocol:
as §3

The conditions of series [7]: cited from earlier work.
The mark [8] stands for this setting: single substance, fluorescence method, criterion average score […].
Where [9] appears, read: single substance, fluorescence method.
Setting [10] is: known values, LLNA-test-based classification, − for non-allergenic substances.

Like-named read-outs stand apart in the source and are kept apart here.

Regarding `O=CCc1ccccc1` [Phenylacetaldehyde], the “NAC depletion (%)” value in series [1] is 9.5%; in series [4], 22.4%. For the same molecule, the “NAL depletion (%)” value in series [2] came to 96.2%; in series [5] it was 98.3%. Also, the Prediction result in series [3] (setting [8]) and in series [6] was “S (S represents as being an allergenic substance)” throughout. Besides, the Average score is 52.9% in series [3] (setting [9]) and 60.3% in series [6]. For the same molecule, the “EC3 (%)” value in series [7] (setting [10]) is given as 3%.
Take `O=C1OC(=O)c2ccccc21` [Phthalic anhydride]: the “NAC depletion (%)” value in series [1] and in series [4] was 0.3% each time. Further, the “NAL depletion (%)” value came to 92.6% in series [2] and 96.9% in series [5]. Also, the Prediction result in series [3] (setting [8]) and in series [6] was “S (S represents as being an allergenic substance)” throughout. The Average score in series [3] (setting [9]) is recorded as 46.4%; in series [6], 48.6%. Moreover, in series [7] (setting [10]), the “EC3 (%)” value was 0.16%.
Consider `CCCOC(=O)c1cc(O)c(O)c(O)c1` [Propyl gallate], for which the “NAC depletion (%)” value is recorded as 100.0% in series [1] and 97.1% in series [4]. Further, the results for the “NAL depletion (%)” value in series [2] and in series [5] were 65.3% and 56.4%, respectively. The Prediction result in series [3] (setting [8]) and in series [6] was “S (S represents as being an allergenic substance)” each time. For the same molecule, the Average score in series [3] (setting [9]) is 82.6%; in series [6], 76.7%. The “EC3 (%)” value in series [7] (setting [10]) is recorded as 0.32%.
Turning to `O=c1c(O)c(O)c1=O` [Squaric acid], the results for the “NAC depletion (%)” value in series [1] and in series [4] were 1.0% and 0.8%, respectively. Besides, the figures for the “NAL depletion (%)” value in series [2] and in series [5] were 0.1% and 0.5%, respectively. Besides, the Average score in series [3] (setting [9]) is listed as 0.5%; in series [6], 0.6%. Further, the “EC3 (%)” value in series [7] (in vivo) is reported as 4.3%.
Take `O=C(O)c1ccc2c(c1)C(=O)OC2=O` [Trimellitic anhydride]: the “NAC depletion (%)” value in series [1] is 0.8%; in series [4], 1.9%. Further, the results for the “NAL depletion (%)” value in series [2] and in series [5] were 94.2% and 97.0%, respectively. The Prediction result in series [3] (setting [8]) and in series [6] was “S (S represents as being an allergenic substance)” in each case. For the same molecule, the results for the Average score in series [3] (setting [9]) and in series [6] were 47.5% and 49.4%, respectively. In addition, the “EC3 (%)” value in series [7] (setting [10]) is given as 0.6%.
Take `O=C1C=CC(=O)C=C1` [p-Benzoquinone]: the “NAC depletion (%)” value in series [1] was determined as 100.0%; in series [4], 96.5%. Moreover, the “NAL depletion (%)” value was determined as 71.8% in series [2] and 83.5% in series [5]. Besides, the Prediction result in series [3] is reported as “S (key: S represents as being an allergenic substance; NS represents as being a non-allergenic substance)”; in series [6] it was “S (S represents as being an allergenic substance)”. Also, the values for the Average score in series [3] (setting [9]) and in series [6] were 85.9% and 90.0%, respectively. In series [7] (setting [10]), the “EC3 (%)” value is 0.0099%.
Consider `CCC/C=C/C=O` [trans-2-Hexanal], for which the “NAC depletion (%)” value in series [1] is on record as 97.9%; in series [4], 80.4%. The “NAL depletion (%)” value is given as 11.4% in series [2] and 12.3% in series [5]. Further, the Prediction result in series [3] (setting [8]) and in series [6] was “S (S represents as being an allergenic substance)” each time. The Average score is 54.6% in series [3] (setting [9]) and 46.3% in series [6]. For the same molecule, the “EC3 (%)” value in series [7] (setting [10]) was 5.5%.
For the molecule `CCCCCC(C=O)=Cc1ccccc1` [α-Amylcinnamaldehyde], the “NAC depletion (%)” value in series [1] was 0.3%; in series [4], 0.0%. Moreover, the entries for the “NAL depletion (%)” value in series [2] and in series [5] were 0.4% and 1.6%, respectively. Moreover, the Prediction result in series [3] (setting [8]) and in series [6] was “NS (NS represents as being a non-allergenic substance)” in each case. Besides, the Average score in series [3] (setting [9]) was 0.3%; in series [6], 0.8%. Further, in series [7] (setting [10]), the “EC3 (%)” value is on record as 11%.
For `CCCCCCC(C=O)=Cc1ccccc1` [α-Hexylcinnamaldehyde], the “NAC depletion (%)” value in series [1] and in series [4] was 0.0% in each case. Besides, the “NAL depletion (%)” value in series [2] stood at 0.0%; in series [5], 1.1%. For the same molecule, the Prediction result in series [3] (setting [8]) and in series [6] was “NS (NS represents as being a non-allergenic substance)” throughout. Further, the Average score in series [3] (setting [9]) is on record as 0.0%; in series [6], 0.6%. For the same molecule, the “EC3 (%)” value in series [7] (setting [10]) was 11%.
In the case of Fluorescein isothiocyanate, the results for the “NAC depletion (%)” value in series [1] and in series [4] were 81.3% and 73.6%, respectively. The “NAL depletion (%)” value in series [2] turned out to be 97.6%; in series [5], 98.1%. In addition, the Prediction result in series [3] (setting [8]) and in series [6] was “S (S represents as being an allergenic substance)” each time. Also, the Average score in series [3] (setting [9]) is reported as 89.4%; in series [6] it was 85.8%. The “EC3 (%)” value in series [7] (in vivo) is reported as 0.14%.
For the molecule Kathon CG, the “NAC depletion (%)” value in series [1] and in series [4] was 100.0% each time. For the same molecule, the results for the “NAL depletion (%)” value in series [2] and in series [5] were 2.0% and −0.4%, respectively. The Average score in series [3] (setting [9]) is on record as 51.0%; in series [6], 49.8%. Further, the “EC3 (%)” value in series [7] (in vivo) was 0.008%.
Vinylpyridine: the “NAC depletion (%)” value in series [1] was 19.8%; in series [4] it was 18.1%. Moreover, the “NAL depletion (%)” value was found to be 3.6% in series [2] and 7.7% in series [5]. For the same molecule, the Prediction result in series [3] (setting [8]) and in series [6] was “S (S represents as being an allergenic substance)” in each case. Further, the Average score is 11.7% in series [3] (setting [9]) and 12.9% in series [6]. Further, in series [7] (setting [10]), the “EC3 (%)” value is 1.6%.
